Target: T1, Tyrosine-protein phosphatase non-receptor type 5 (Homo sapiens, UniProt P54829)
T1 sequence (P54829 whole entry): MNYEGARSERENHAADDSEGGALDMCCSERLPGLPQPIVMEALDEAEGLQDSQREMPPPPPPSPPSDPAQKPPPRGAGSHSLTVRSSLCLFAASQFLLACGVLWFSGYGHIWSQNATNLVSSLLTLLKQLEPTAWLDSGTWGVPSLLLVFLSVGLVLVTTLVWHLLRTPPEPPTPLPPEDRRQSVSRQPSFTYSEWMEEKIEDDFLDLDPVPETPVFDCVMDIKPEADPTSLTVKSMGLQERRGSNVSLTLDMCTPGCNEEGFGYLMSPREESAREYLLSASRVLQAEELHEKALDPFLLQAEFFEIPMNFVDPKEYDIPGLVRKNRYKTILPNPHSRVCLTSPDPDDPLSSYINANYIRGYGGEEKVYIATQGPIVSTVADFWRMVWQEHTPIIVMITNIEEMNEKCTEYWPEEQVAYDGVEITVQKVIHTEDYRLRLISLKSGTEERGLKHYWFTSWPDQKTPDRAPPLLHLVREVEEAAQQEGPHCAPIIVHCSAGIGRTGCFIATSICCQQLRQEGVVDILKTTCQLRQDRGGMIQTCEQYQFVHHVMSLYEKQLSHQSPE
Assay: PTPN5 enzyme inhibition – biochemical, fluorescence intensity, uHTS hits, confirmation (AID 602372)

| SMILES | IC50 |
| --- | --- |
| S=C1N=C(C23CC4CC(CC(C4)C2)C3)CC(c2ccc3c(c2)OCO3)N1 (stereo not given) | 56.8 µM |
| C=c1c(O)c(O)c(=C2C(=O)C(=O)C(C)C(=O)C2=O)c(O)c1O (stereo not given) [(3E)-5-hydroxy-6-methyl-3-(2,3,5-trihydroxy-4-methyl-6-oxo-1-cyclohexa-2,4-dienylidene)cyclohex-5-ene-1,2,4-trione] | > 80 µM |
| O=C1C(=O)N(CCCO)C(c2ccc(Br)cc2)C1C(=O)c1ccc(Br)cc1 (stereo not given) [(4E)-5-(4-bromophenyl)-4-[(4-bromophenyl)-oxidanyl-methylidene]-1-(3-oxidanylpropyl)pyrrolidine-2,3-dione] | 36.2 µM |
| CCN(CC)P(=O)(NC(=O)C(Cl)(Cl)Cl)N(CC)CC [MLS000564159] | > 80 µM |
| COc1ccc(OC)c(-n2c(O)c3o[nH]c(-c4ccccc4Cl)c-3c2=O)c1 [SMR000046218] | 24.4 µM |

Compounds with a lower IC50, results first:

| IC50 | SMILES |
| --- | --- |
| 4.09 µM | CCOc1cc(CN=Nc2nc(O)c(CC(=O)O)s2)ccc1OCc1ccc(Cl)cc1Cl [2-[2-[(N''E)-N''-[4-(2,4-dichlorobenzyl)oxy-3-ethoxy-benzylidene]hydrazino]-4-keto-2-thiazolin-5-yl]acetic acid] |
| 22.6 µM | S=C1N=C2C(=C3SCCS3)CCCC2C(c2ccccc2)N1 (stereo not given) [MLS000516376] |
| 4.12 µM | CSc1ccc(CN=Nc2ccc(S(=O)(=O)Nc3ccccc3C(=O)O)cc2[N+](=O)[O-])cc1 [MLS002245633] |
| 8.95 µM | O=C(N/N=C/C1C=CC=CC1=O)c1cccc([N+](=O)[O-])c1 (stereo not given) [MLS002667988] |
| 9.72 µM | COc1ccc(CN=Nc2nc(O)c(CC(=O)O)s2)cc1OCc1ccc(Cl)cc1Cl [[2-({3-[(2,4-dichlorobenzyl)oxy]-4-methoxybenzylidene}hydrazono)-4-oxo-1,3-thiazolidin-5-yl]acetic acid] |

— BindingDB's records for doi:10.7270/Q2DV1HGT (Burnham Center For Chemical Genomics, 2012)
